{
  "source": "patent US20250093329A1",
  "about": "“SCREENING OF COMPOUNDS” (THE UNIVERSITY OF TULSA, priority 2022, published 2025)",
  "key": {"H293": {"system": "H293", "test": "Cytotoxicity testing, CellTiter-Blue assay, 24 hour (FIG. 3)", "assay_type": "cell-based", "settings": "100 μM, 24 hour compound incubation", "experimental": "The cytotoxicity tests were carried out in the following manner. Living cells are known to convert resazurin to the fluorescent compound resorufin. Test systems which rely upon this reaction are commercially available. One such test is known at the Cell Titer Blue Cell Viability test assay from Promega. Cell cultures for each of the identified cancer lines were obtained from ATCC and maintained in Dulbecco's Modified Eagle Medium (DMEM) supplemented with 10% fetal bovine serum (FBS) and pen/strep. As known to those skilled in the art, DMEM typically includes the components identified below.\nThe test method provides for incubating the cell cultures at temperatures which correspond to the range of body temperatures experienced by the patient from which the cancer cells were obtained. Typically, incubation temperatures will be between the temperatures of 36.1° C. and 37.2° C. In most cases incubation will occur at 37° C. Additionally, the cell cultures are kept under an atmosphere which mimics cell conditions of the tumor within the patient's body. In most cases, the tumor microenvironment (TME) is characterized by hypoxia (low oxygen) and may also be characterized by hypercapnia (increased CO2). Hypercapnia results from decreased blood flow which limits CO2 elimination. Restricted CO2 elimination leads to increased HCO3^− conversion to CO2 in order to neutralize lactate as altered tumor cell metabolism produces more CO2 than normal. Normal tissue averages about 5% oxygen with oxygen ranges from about 3% to 7.4%. […] In the case of CO2, normocapnic is around 5% CO2, while hypercapnic can rise to 10% CO2. Therefore, to mimic the environment of the tumor the method utilizes an incubator designed to provide the optimal gaseous environment corresponding to that of the tumor. Thus, the incubator will be capable of maintaining an atmosphere having an oxygen content in the range of […] and a CO2 in the range of 1% to 10%.\nAfter allowing for proliferation of the cells, the cells were distributed across a plurality of test wells containing from 100 μL DMEM plus 10% FBS and allowed to attach to the surface of the test wells. Typically, the time for attachment will require about 12 hours to about 18 hours. […] Following treatment of the cells with the N-benzyl sulfonamide or control, the toxicity of the compound to the cells will be determined by addition of a luminescing agent. […] Subsequently, the fluorescence of resazurin is measured by excitation at 560 nm and recording the emission at 590 nm within an instrument configured to measure fluorescence intensity. Two commercially available systems are the BioTek Cytation 5 plate reader and the Promega Glomax Multi+detection system. […]"}, "BxPC3": {"system": "BxPC3", "test": "ATP levels by CellTiter-Glo, compound alone or with metabolic inhibitor (Table 1)", "assay_type": "cell-based", "settings": "compound 100 uM + 2DG (about 10-20 mM), DMEM + 10% FBS, two hour incubation, DMSO control", "text": "The improved method for identifying such compounds measures ATP levels as a function of light emitted by any ATP dependent luciferase or modified luciferases, i.e. luciferase derivatives. The method uses a conventional luminescent assay to determine the number of viable cells in a culture. The improvement provided by the present method results from pre-treating cells used in the assays with a metabolic inhibitor prior to treatment with the compound of interest, or switching the cells to a media formulated to force use of a specific metabolic pathway. Luminescent assays for determining cytotoxicity are well known in the art. […]\nFollowing treatment of the control and test cells with the metabolic inhibitor (or switching to a new media), the method calls for addition of the compound to be screened for anti-cancer properties to the cells. […] Following completion of the selected time period, the ATP level within the cell is determined. ATP levels can be determined by luminescence according to standard measuring procedures, i.e. the luminescence level of the assay from the living cells treated with the two component composition is compared to the luminescence level of the assay from the living cells without the two component composition, i.e., the control experiment. […]"}},
  "note": "Entries after “also recorded” stand apart in the source; their conditions may differ.",
  "data": [
    {"smiles": "O=S(=O)(NCc1c[nH]c2ccccc12)c1ccc(Cl)cc1", "note": "[Compound 2, N-[(1H-indol-3-yl)methyl]-4-chlorobenzenesulfonamide]", "values": [
      {"measurement": "effectiveness, percent reduction in cell viability (FIG. 3)", "setting": "H293", "value": "effective"},
      {"measurement": "percent of control (POC), ATP luminescence", "setting": "BxPC3", "value": "remarkable value; also recorded: effectiveness"}
    ]}
  ]
}
